Values joined by “and” are separate entries in the source; they are usually repeats but may differ in a detail not shown here. Equal values may be shown once.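 In this assay, cells in 96-well plates receive the compound at five concentrations for 48 hours. Endpoints are linearly interpolated between the surrounding concentrations. GI50 = concentration required for 50% inhibition of growth. TGI denotes the concentration required for complete inhibition of growth.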
What was measured:
Test in all cases: NCI anticancer screen, dose series, 48 h
[1] = test system: KM12 colon
[2] = test system: TK-10 renal
[3] = test system: OVCAR-3 ovarian
[4] = test system: UO-31 renal
[5] = test system: MOLT-4 leukemia
[6] = test system: RXF 393 renal
[7] = test system: OVCAR-8 ovarian
[8] = test system: SF-268 CNS
[9] = test system: HOP-62 NSCLC
[10] = test system: NCI-H460 lung

For `N#CCc1nc2c(s1)C(=O)c1ccccc1C2=O`, the TGI [1] was 36 µM, the TGI [2] was 36.5 µM and the TGI [3] was 29.3 µM. It also gave a TGI [4] of 29.3 µM, a TGI [5] of 3.48 µM and a TGI [6] of 49.4 µM. It also gave a TGI [7] of 22.6 µM, a TGI [8] of 32.2 µM and a TGI [9] of 28.3 µM. The TGI [10] was 47.6 µM.

Work on `C/C(=N\N=C(N)N)c1sc(-c2nc(C)c(/C(C)=N/N=C(N)N)s2)nc1C` yielded a TGI [1] greater than 100 µM, a TGI [2] greater than 100 µM and a TGI [3] greater than 100 µM. It also gave a TGI [4] greater than 100 µM, a TGI [5] greater than 100 µM and a TGI [6] greater than 95.3 µM. For the same molecule, the TGI [7] was greater than 100 µM, the TGI [8] was greater than 100 µM and the TGI [9] was greater than 100 µM. For the same molecule, the TGI [10] was greater than 100 µM.

Work on `NC(=O)c1ccc(NC(=O)c2oc3ccccc3c2-c2cnn(-c3ccccc3)c2)cc1` yielded a GI50 [1] greater than 100 µM, a TGI [1] greater than 100 µM and a GI50 [2] greater than 23.3 µM. It also gave a TGI [2] greater than 100 µM, a GI50 [4] greater than 100 µM and a TGI [4] greater than 100 µM. It also gave a GI50 [5] greater than 100 µM, a TGI [5] greater than 100 µM and a GI50 [6] of 1.33 µM. It also gave a TGI [6] of 6.03 µM, a GI50 [7] greater than 100 µM and a TGI [7] greater than 100 µM. It also gave a GI50 [8] of 5.79 µM, a TGI [8] greater than 100 µM and a GI50 [9] of 3.33 µM. For the same molecule, the TGI [9] was 46.6 µM, the GI50 [10] was greater than 100 µM and the TGI [10] was greater than 100 µM.

With `NC(=O)Cn1c(=O)[nH]c(=O)c2[nH]cnc21` the TGI [1] was greater than 100 µM, the TGI [2] was greater than 100 µM and the TGI [3] was greater than 100 µM. It also gave a TGI [4] greater than 100 µM, a TGI [5] greater than 100 µM and a TGI [6] greater than 100 µM. For the same molecule, the TGI [7] was greater than 100 µM, the TGI [8] was greater than 100 µM and the TGI [9] was greater than 100 µM. The TGI [10] was greater than 100 µM.

`O=C(O)c1c(Cl)c(Cl)c(Cl)c(Cl)c1-c1c2cc(I)c(=O)c(I)c-2oc2c(I)c(O)c(I)cc12` was tested, and the GI50 [1] was 53.6 µM, the TGI [1] was 182 µM and the GI50 [2] was 59 µM. For the same molecule, the TGI [2] was greater than 200 µM, the GI50 [3] was 32.1 µM and 33 µM and the TGI [3] was 72.1 µM. For the same molecule, the GI50 [4] was 43.5 µM, the TGI [4] was 107 µM and the GI50 [5] was 40.8 µM. The TGI [5] was 86.2 µM, the GI50 [6] was 27.5 µM and 15 µM and the TGI [6] was 45.4 µM. For the same molecule, the GI50 [7] was 58.2 µM and 47.4 µM, the TGI [7] was 115 µM and the GI50 [8] was 41.3 µM and 36.8 µM. For the same molecule, the TGI [8] was 81.2 µM, the GI50 [9] was 80.7 µM and 31 µM and the TGI [9] was 87.4 µM. The GI50 [10] was 58.8 µM and the TGI [10] was greater than 200 µM.

With `CC1=C[C@H]2C[C@@]3(C)O[C@@H]([C@]4(C)CC[C@H]([C@@H](C)C(=O)O)OO4)CC3C(C)(C)[C@H]2CC1` (some centres not stated) the TGI [1] was 1.65 µM, the TGI [2] was 4.28 µM and the TGI [3] was 3.29 µM. The TGI [4] was 2.59 µM, the TGI [6] was 2.53 µM and the TGI [7] was 3.54 µM. For the same molecule, the TGI [8] was 4.2 µM, the TGI [9] was 3.94 µM and the TGI [10] was 2.74 µM.

With `COC(=N)/C(=C1\OC(N)=C(c2ccc(Cl)cc2)C1=O)c1ccc(Cl)cc1` the TGI [1] was greater than 100 µM, the TGI [2] was greater than 100 µM and the TGI [3] was greater than 100 µM. For the same molecule, the TGI [4] was greater than 100 µM, the TGI [5] was greater than 100 µM and the TGI [6] was greater than 100 µM. For the same molecule, the TGI [7] was greater than 100 µM, the TGI [8] was greater than 100 µM and the TGI [9] was greater than 100 µM. The TGI [10] was greater than 100 µM.

Molecule `O=C1CCCC2COc3ccc(O)c1c32` (configuration not stated) has a TGI [1] greater than 100 µM, a TGI [2] greater than 100 µM and a TGI [3] greater than 100 µM. It also gave a TGI [4] greater than 100 µM, a TGI [5] greater than 100 µM and a TGI [6] greater than 100 µM. The TGI [7] was greater than 100 µM, the TGI [8] was greater than 100 µM and the TGI [9] was greater than 100 µM. It also gave a TGI [10] greater than 100 µM.

`Cc1ccc(C)c(NC(=O)CCc2n[nH]c(=S)o2)c1` was tested, and the TGI [1] was greater than 100 µM, the TGI [2] was greater than 100 µM and the TGI [3] was greater than 100 µM. It also gave a TGI [4] greater than 100 µM, a TGI [5] greater than 100 µM and a TGI [6] greater than 100 µM. For the same molecule, the TGI [7] was greater than 100 µM, the TGI [8] was greater than 100 µM and the TGI [9] was greater than 100 µM. For the same molecule, the TGI [10] was greater than 100 µM.

Reference: PubChem BioAssay (NCI)
